Common to all, as to type: in vivo
The subject of one series is Scirpus juncoides. Put plainly: Test Example 1: herbicidal activity, application before weed generation in submerged conditions (symbol B). The settings on record: application herbicide amount 320 g/ha. In outline: (§1)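 Paddy pre-emergence test. Formulated emulsion, water-diluted to a predetermined rate, is applied to floodwater on sowing day; rice transplanted at 2.5 leaves. Effect read at 3 weeks on a 0–5 herbicidal-ratio scale.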

The test system of another series is Digitaria ciliaris. Put plainly: Test Example 5: herbicidal effect by foliage application, plastic box (symbol F). The conditions noted are these: 320 g/ha, 3 weeks after application. In outline:
(§2)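 Seeds were sown in sterilized diluvial soil, covered with about 1.5 cm of soil and grown 14 days in a greenhouse at 25° C. to 30° C. An emulsifiable formulation diluted in water to a set rate was sprayed over foliage, and injury was scored 3 weeks later.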

Series [1] deals with Echinochloa crus-galli var. crus-galli. Put plainly: Test Example 5: herbicidal effect by foliage application, plastic box (symbol H). The conditions noted are these: 320 g/ha, 3 weeks after application. In outline:
as §2

The test system of the next series is soybean. The series can be described thus: Test Example 4: effect on crop by soil treatment (symbol d). The conditions noted are these: application herbicide amount 320 g/ha. In outline: (§3)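 Crop seeds, among them rice, wheat, beet and rapeseed, were sown in sterilized diluvial soil and covered with about 1.5 cm of soil. Boxes were kept in a greenhouse at 25° C. to 30° C. for plant growth.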

A further series concerns Alopecurus myosuroides. Put plainly: Test Example 4: herbicidal effect by soil treatment (symbol J). The settings on record: application herbicide amount 320 g/ha. In outline: (§4)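 Seeds were sown in sterilized diluvial soil, covered with about 1.5 cm of soil, and the soil surface was sprayed with a water-diluted emulsion of the compound at a predetermined rate. Plants grew in a greenhouse at 25° C. to 30° C.; effects were scored visually 3 weeks after application.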

The next series relates to Amaranthus retroflexus. Put plainly: Test Example 4: herbicidal effect by soil treatment (symbol N). The conditions noted are these: application herbicide amount 320 g/ha. The method in brief:
as §4

The test system of another series is Monochoria vaginalis. Put plainly: Test Example 2: herbicidal activity, application during weed generation in submerged conditions (symbol C). The conditions noted are these: Table 23; application herbicide amount 320 g/ha; grade 0-5 by criteria of Test Example 1. In outline:
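Scoring of herbicidal effect took place 3 weeks after treatment, using the criteria of the earlier test. Treatment was water-surface application of diluted emulsifiable compound at a set dose. Plants were at one- to two-leaf stage in submerged alluvial soil (4 cm depth), greenhouse 25-30° C.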

Series [2] relates to Echinochloa oryzacola Vasing. The series can be described thus: Test Example 1: herbicidal activity, application before weed generation in submerged conditions (symbol A). The conditions noted are these: application herbicide amount 320 g/ha. In outline: as §1
The test system of another series is rapeseed. The series can be described thus: Test Example 4: effect on crop by soil treatment (symbol g). The conditions noted are these: application herbicide amount 320 g/ha. The method in brief:
as §3

Series [3] has as its system directly sowed rice plant. Put plainly: Test Example 3: effect on crop by foliage application, Wagner pot (symbol b). The settings on record: application herbicide amount 320 g/ha. In outline:
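Alluvial soil in a 1/10000-are Wagner pot was flooded to a water depth of 0.1–0.5 cm. Echinochloa crus-galli var. crus-galli, Leptochloa chinensis, Cyperus difformis and rice were sown into it and grown in a greenhouse at 25–30 °C.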

A further series concerns Avena fatua. Put plainly: Test Example 4: herbicidal effect by soil treatment (symbol I). The settings on record: application herbicide amount 320 g/ha. In outline:
as §4

The subject of another series is transplanted rice plant. The series can be described thus: Test Example 1: effect on crop, application before weed generation in submerged conditions (symbol a). The conditions noted are these: application herbicide amount 320 g/ha. The method in brief:
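Alluvial soil pots flooded to 4 cm water, sown with Echinochloa oryzacola, Scirpus juncoides and Monochoria vaginalis, then transplanted with 2.5 leaf stage rice seedlings; pre-emergence application. Greenhouse 25° C. to 30° C.; scored 0–5 by herbicidal ratio 3 weeks after application.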

The next series has as its system Abutilon theophrasti. The series can be described thus: Test Example 4: herbicidal effect by soil treatment (symbol M). The settings on record: application herbicide amount 320 g/ha. The method in brief:
as §4

Consider `CCC(=O)CCC1CC(O)=C(c2c(C)cc(C)cc2C)C1=O` (centres unmarked) [5-001], for which the “Herbicidal effect grade, B: Scirpus juncoides” value with Scirpus juncoides is 0 (Herbicidal ratio of 5% or lower (almost no effect)). Further, in the series on Digitaria ciliaris, the “F: Digitaria ciliaris, herbicidal effect grade” value was 4 (Herbicidal ratio of 70% or higher and lower than 90%). For the same compound, the “H: Echinochloa crus-galli var. crus-galli, herbicidal effect grade” value in series [1] is 3 (Herbicidal ratio of 40% or higher and lower than 70%). The “d: soybean, effect on crop grade” value in the series with soybean was 0 (Herbicidal ratio of 5% or lower (almost no effect)). In addition, the “J: Alopecurus myosuroides, herbicidal effect grade” value in the series with Alopecurus myosuroides is 2 (Herbicidal ratio of 20% or higher and lower than 40%). In the series on Amaranthus retroflexus, the “N: Amaranthus retroflexus, herbicidal effect grade” value is given as 0 (Herbicidal ratio of 5% or lower (almost no effect)). Also, in the series on Monochoria vaginalis, the “Herbicidal effect grade, C: Monochoria vaginalis” value is 0 (Herbicidal ratio of 5% or lower (almost no effect)). Further, the “Herbicidal effect grade, A: Echinochloa oryzacola Vasing.” value in [2] is recorded as 0 (Herbicidal ratio of 5% or lower (almost no effect)). Further, the “g: rapeseed, effect on crop grade” value in the series with rapeseed was 0 (Herbicidal ratio of 5% or lower (almost no effect)). The “effect on crop b (directly sowed rice plant), grade 0-5” value in series [3] was 5 (Herbicidal ratio of 90% or more (almost completely withered)). Further, the “I: Avena fatua, herbicidal effect grade” value with Avena fatua is recorded as 0 (Herbicidal ratio of 5% or lower (almost no effect)). Further, in the series with transplanted rice plant, the “Effect grade on crop, a: transplanted rice plant” value is reported as 0 (Herbicidal ratio of 5% or lower (almost no effect)). Besides, the “M: Abutilon theophrasti, herbicidal effect grade” value with Abutilon theophrasti was 0 (Herbicidal ratio of 5% or lower (almost no effect)).
For the compound `C#CCOC1=C(c2c(C)cc(C)cc2C)C(=O)C(CC(C)=NOC)C1` (centres unmarked) [1-008], the “Herbicidal effect grade, B: Scirpus juncoides” value in the series on Scirpus juncoides is 3 (Herbicidal ratio of 40% or higher and lower than 70%). The “F: Digitaria ciliaris, herbicidal effect grade” value in the series on Digitaria ciliaris is listed as 5 (Herbicidal ratio of 90% or more (almost completely withered)). Besides, the “H: Echinochloa crus-galli var. crus-galli, herbicidal effect grade” value in [1] is 4 (Herbicidal ratio of 70% or higher and lower than 90%). Also, the “d (soybean) effect on crop grade” value with soybean is reported as 0 (Herbicidal ratio of 5% or lower (almost no effect)). In the series with Alopecurus myosuroides, the “J (Alopecurus myosuroides) herbicidal effect grade” value is 5 (Herbicidal ratio of 90% or more (almost completely withered)). Also, the “N (Amaranthus retroflexus) herbicidal effect grade” value in the series with Amaranthus retroflexus is 0 (Herbicidal ratio of 5% or lower (almost no effect)). The “Herbicidal effect grade, C: Monochoria vaginalis” value in the series on Monochoria vaginalis is recorded as 0 (Herbicidal ratio of 5% or lower (almost no effect)). For the same compound, in series [2], the “Herbicidal effect grade, A: Echinochloa oryzacola Vasing.” value is listed as 5 (Herbicidal ratio of 90% or more (almost completely withered)). Also, the “g (rapeseed) effect on crop grade” value with rapeseed is listed as 0 (Herbicidal ratio of 5% or lower (almost no effect)). In addition, the “effect on crop b (directly sowed rice plant), grade 0-5” value in series [3] is 5 (Herbicidal ratio of 90% or more (almost completely withered)). Also, the “I (Avena fatua) herbicidal effect grade” value in the series on Avena fatua was 0 (Herbicidal ratio of 5% or lower (almost no effect)). Moreover, in the series on transplanted rice plant, the “Effect grade on crop, a: transplanted rice plant” value is given as 0 (Herbicidal ratio of 5% or lower (almost no effect)). For the same compound, the “M (Abutilon theophrasti) herbicidal effect grade” value with Abutilon theophrasti was 0 (Herbicidal ratio of 5% or lower (almost no effect)).
